According to US10513519B2, “Solid forms of (1S,4S)-4-(2-(((3S,4R)-3-fluorotetrahydro-2H-pyran-4-yl)amino)-8-((2,4,6-trichlorophenyl)amino)-9H-purin-9-yl)-1-methylcyclohexane-1-carboxamide and methods of their use” (Signal Pharmaceuticals, LLC, priority 2016, dated 2019):

Tested on: cancer cell lines
Assay: Multiplexed cytotoxicity assay: cell proliferation (relative cell count IC50, GI50)
Assay type: cell-based
Conditions: Homo sapiens
Protocol: (§1) Cells are grown in RPMI1640, 10% FBS, 2 mM L-alanyl-L-Glutamine, 1 mM Na pyruvate or a special medium in a humidified atmosphere of 5% CO2 at 37° C. Cells are seeded into 384-well plates and incubated in a humidified atmosphere of 5% CO2 at 37° C. Compounds are added 24 h post cell seeding. At the same time, a time zero untreated cell plate is generated. After a 72 hour incubation period, cells are fixed and stained with fluorescently labeled antibodies and nuclear dye to allow visualization of nuclei, apoptotic cells and mitotic cells. Apoptotic cells are detected using an anti-active caspase-3 antibody. Mitotic cells are detected using an anti phospho-histone-3 antibody. Compounds are serially diluted 3.16-fold and assayed over 10 concentrations in a final assay concentration of 0.1% DMSO from the highest test concentration of 10 μM. Automated fluorescence microscopy was carried out using a Molecular Devices ImageXpress Micro XL high-content imager, and images are collected with a 4× objective.
(§2) Sixteen-bit TIFF images are acquired and analyzed with MetaXpress 5.1.0.41 software. Cell proliferation is measured by the signal intensity of the incorporated nuclear dye. The cell proliferation assay output is referred to as the relative cell count. To determine the cell proliferation end point, the cell proliferation data output is transformed to percentage of control (POC) using the following formula: POC=relative cell count(compound wells)/relative cell count(vehicle wells)×100
(§3) GI50 is the concentration needed to reduce the observed growth by half. This is the concentration that inhibits the growth to the level midway between growth in untreated cells and the number of cells seeded in the well (Time zero value). The IC50 values are calculated using nonlinear regression to fit data to a sigmoidal 4 point, 4 parameter One-Site dose response model, where: y(fit)=A+[(B−A)/(1+((C/x)^D))].
as §1, with “In another experiment, cells were grown” for “Cells are grown”, “Cells were” for “Cells are”, “Compounds were” for “Compounds are”, “plate was” for “plate is”, “cells were” for “cells are”, “images were” for “images are”
as §2, with “images were” for “images are”, “proliferation was” for “proliferation is”, “output was” for “output is”
as §3, with “GI50 refers to” for “GI50 is”, “This corresponds to” for “This is”, “values were” for “values are”

[1] = JIYOYE, JIYOYE (Hematopoietic and lymphoid, Lymphoma)
[2] = JeKo-1, JEKO1 (Hematopoietic and lymphoid, Lymphoma)
[3] = Jurkat, JURKAT (Hematopoietic and lymphoid, Leukemia)
[4] = K562, K562 (Hematopoietic and lymphoid, Leukemia)
[5] = KATO III, 72 h, KATOIII, Stomach
[6] = KU812, KU812 (Hematopoietic and lymphoid, Leukemia)
[7] = L-428, L428 (Hematopoietic and lymphoid, Lymphoma)
[8] = MC116, MC116 (Hematopoietic and lymphoid, Lymphoma)
[9] = MC-IXC, 72 h, MCIXC, CNS, Neuroblastoma
[10] = ME-180, 72 h, ME180, Female GU, Ovary, 72 h
[11] = MEG-01, MEG01 (Hematopoietic and lymphoid, Leukemia)
[12] = MES-SA, 72 h, MESSA, Soft Tissue, Sarcoma
[13] = MG-63, 72 h, MG63, Soft Tissue, Osteosarcoma, 72 h
[14] = MHH-PREB-1, MHHPREB1 (Hematopoietic and lymphoid, Leukemia)
[15] = MIA PaCa-2, 72 h, MIAPACA2, Pancreas, 72 h
[16] = MOLT-3, MOLT3 (Hematopoietic and lymphoid, Leukemia)
[17] = MOLT-16, MOLT16 (Hematopoietic and lymphoid, Leukemia)
[18] = MV4-11, MV411 (Hematopoietic and lymphoid, Leukemia)
[19] = Malme-3M, MALME3M (Skin, Melanoma)
[20] = NALM-6, NALM6 (Hematopoietic and lymphoid, Leukemia)
[21] = NCI-H69, 72 h, NCIH69, Lung, SCLC, 72 h
[22] = NCI-H292, 72 h, NCIH292, Lung, NSCLC, 72 h
[23] = NCI-H295R, NCIH295R (Endocrine, Adrenal gland)

For `C[C@]1(C(N)=O)CC[C@@H](n2c(Nc3c(Cl)cc(Cl)cc3Cl)nc3cnc(N[C@@H]4CCOC[C@H]4F)nc32)CC1` [Compound 1, cis-4-[2-{[(3S,4R)-3-fluorooxan-4-yl]amino}-8-(2,4,6-trichloroanilino)-9H-purin-9-yl]-1-methylcyclohexane-1-carboxamide], the GI50 [1] was 81.4 nM, the IC50 [1] was 210 nM and the GI50 [2] was 461 nM. It also gave an IC50 [2] of 830 nM, a GI50 [3] of 3340 nM and an IC50 [3] of 3730 nM. It also gave a GI50 [4] of over 10000 nM, an IC50 [4] of over 10000 nM and a GI50 [5] of 61.2 nM. The IC50 [5] was 78.7 nM, the GI50 [6] was 3 nM and the IC50 [6] was 15.9 nM. It also gave a GI50 [7] of 1630 nM, an IC50 [7] of 3460 nM and a GI50 (LNCaP, 72 h, Prostate) of 2430 nM. The IC50 (LNCaP, 72 h, Prostate) was 5070 nM, the GI50 (LS174T, LS174T (Colon)) was 194 nM and the IC50 (LS174T, LS174T (Colon)) was 259 nM. For the same compound, the GI50 (LS-123, LS123 (Colon)) was 61 nM, the IC50 (LS-123, LS123 (Colon)) was 188 nM and the GI50 (LS-411N, LS411N (Colon)) was 35.8 nM. For the same compound, the IC50 (LS-411N, LS411N (Colon)) was 53 nM, the GI50 (LS-513, LS513 (Colon)) was 35.3 nM and the IC50 (LS-513, LS513 (Colon)) was 38.6 nM. It also gave a GI50 (LS-1034, LS1034 (Colon)) of 224 nM, an IC50 (LS-1034, LS1034 (Colon)) of 676 nM and a GI50 (M059J, M059J (CNS, Glioma)) of 612 nM. For the same compound, the IC50 (M059J, M059J (CNS, Glioma)) was 3310 nM, the GI50 [8] was 6020 nM and the IC50 [8] was 6490 nM. It also gave a GI50 [9] of 2040 nM, an IC50 [9] of 2330 nM and a GI50 (MCF7, MCF7 (Breast)) of 636 nM. For the same compound, the IC50 (MCF7, MCF7 (Breast)) was 3470 nM, the GI50 (MDA-MB-231, MDAMB231 (Breast)) was 33.9 nM and the IC50 (MDA-MB-231, MDAMB231 (Breast)) was 62.4 nM. The GI50 (MDA-MB-415, MDAMB415 (Breast)) was 729 nM, the IC50 (MDA-MB-415, MDAMB415 (Breast)) was over 10000 nM and the GI50 (MDA-MB-436, MDAMB436 (Breast)) was 262 nM. The IC50 (MDA-MB-436, MDAMB436 (Breast)) was over 10000 nM, the GI50 (MDA-MB-453, MDAMB453 (Breast)) was 656 nM and the IC50 (MDA-MB-453, MDAMB453 (Breast)) was 2820 nM. For the same compound, the GI50 (MDA-MB-468, MDAMB468 (Breast)) was 36.3 nM, the IC50 (MDA-MB-468, MDAMB468 (Breast)) was 72.1 nM and the GI50 [10] was over 10000 nM. The IC50 [10] was over 10000 nM, the GI50 [11] was 81.8 nM and the IC50 [11] was 221 nM. It also gave a GI50 [12] of 810 nM, an IC50 [12] of 1100 nM and a GI50 [13] of 108 nM. The IC50 [13] was 115 nM, the GI50 [14] was 6690 nM and the IC50 [14] was 6970 nM. It also gave a GI50 [15] of 35.7 nM, an IC50 [15] of 39.6 nM and a GI50 [16] of 946 nM. For the same compound, the IC50 [16] was 3030 nM, the GI50 [17] was 2880 nM and the IC50 [17] was 3350 nM. It also gave a GI50 [18] of 107 nM, an IC50 [18] of 184 nM and a GI50 [19] of 3.4 nM. It also gave an IC50 [19] of 12 nM, a GI50 (MeWo, MEWO (Skin, Melanoma)) of 102 nM and an IC50 (MeWo, MEWO (Skin, Melanoma)) of 159 nM. The GI50 [20] was over 10000 nM, the IC50 [20] was over 10000 nM and the GI50 [21] was 5000 nM. The IC50 [21] was over 10000 nM, the GI50 [22] was 278 nM and the IC50 [22] was 686 nM. It also gave a GI50 [23] of over 10000 nM, an IC50 [23] of over 10000 nM and a GI50 (NCI-H441, 72 h, NCIH441, Lung, NSCLC, 72 h) of 271 nM.
